Experimental data from patent publication US9844214B2, “Alpha connexin C-terminal (ACT) peptides for use in transplant” (MUSC Foundation for Research Development, priority 2004, dated 2017).
“Also recorded” adds a separate entry of the source.

Tests used:
[1] = tested on: mouse cardiac endothelial cells; experiment: In vitro cold storage and reperfusion injury model, endothelial cells; format: cell-based; conditions: for IL-8 secretion, endothelial cells (Elisa): UW solution supplemented with ACT1 peptide
Experimental: These studies were conducted using a modification of the in vitro donor cold storage and reperfusion injury model (Casiraghi et al., 2009). Human umbilical vein endothelial cells (HUVECs) and mouse microvascular endothelial cells were grown to confluence on transwells and transendothelial resistance (TEER) was recorded. To model cold ischemia and reperfusion injury growth, media was removed from the cells and replaced with either ice cold UW solution or UW solution containing ACT1 peptide, and cultures were exposed to 6 h of hypoxia in a hypoxic chamber (Billups-Rothenberg, Del Mar, Calif.) at 4° C. Following hypoxic exposure, UW solution was removed, and to stimulate reperfusion, UW solution was replaced with fresh pre-warmed (37° C.) culture media, and cells were monitored for 24 h. TEER was measured at three time points post reperfusion as a marker of endothelial/epithelial cell death and dysfunction. A loss of […], as measured by TEER, across the cellular monolayer is associated with a loss of cell-cell communication (thus, gap junction and tight junction injury), cell injury, and a leaky endothelial cell lining. In vivo, this would translate as dysfunction of the cell layer and facilitate uncontrolled fluid trafficking, loss of vascular tone, reduced barrier function that would facilitate immune cell infiltration.

[2] = mouse, in vivo
Experimental: Three CD1 mice were anesthetized by IP injection of 0.2 mL Salazine/ketamine. 10 μL of 1 mM ACT1 peptide dissolved in a solution containing normal saline and 0.05% Brij-78 was gently dripped onto the corneal surface of both eyes and allowed to permeate for 20 or 40 min. 0.05% Brij-78 in normal saline was used on a control mouse. The mice were sacrificed in a CO2 chamber and cervically dislocated at 20, 40 min (the control mouse sacrificed at 20 min). The eyes were removed and rinsed in PBS. A small incision was made in the anterior chamber and the aqueous humor (˜10 μL) was transferred to tube and flash frozen in a dry ice ethanol bath. The total sample was dissolved in 2× samples loading buffer and loaded on a 10-20% Tris-Tricine gel. Gel was transferred to a PDVF membrane and stained using RBT Sigma anti-CX43 CT antibody (1:10000) and a goat anti-RBT AP secondary (1:15000) to reveal the ACT1 band at <10 kDa.

[3] = tested on: human respiratory epithelial cells; experiment: In vitro cold storage and reperfusion injury model, epithelial cells; format: cell-based
mouse tracheas = experiment: Mouse trachea cold storage histology; conditions: 6 h at 4° C. in PBS+ACT1 peptide vs PBS
porcine kidney = experiment: Porcine kidney model of cold ischemia (Cx43, nitrotyrosine, apoptosis staining); set-up: species or system pig
Experimental: These studies were conducted using kidneys procured from 2 standard criteria donor pigs. The organs were flushed via the aorta with preservation solution after 10 minutes of warm ischemia post-mortem. Biopsies were taken prior to treatment. The kidneys were then flushed with either cold Belzer's solution (control) or the same solution containing 100 μm ACT1 peptide, and stored in the respective solutions on ice for 24 h. Biopsies were taken at regular intervals and sections were stained for Cx43 and nitrotyrosine.

ARPE-19 cells = experiment: VEGF-induced deterioration of trans-epithelial resistance (TER) in ARPE19 monolayers; format: cell-based, human; conditions: ARPE19 monolayers pre-treated with the ACT peptide
Text: Thus, while not wishing to be bound by theory, stabilizing the tight junction proteins with the ACT peptide can prevent loss of tight-junction disintegration and thus damage to RPE/Bruch's membrane.

HUVECs [4] = experiment: HUVEC H2O2 oxidative injury model; format: cell-based, human; conditions: 200 nM H2O2, ±ACT1 peptide
Experimental: (§1) HUVECs were exposed to two experimental conditions to model organ cold storage and reperfusion injuries. Cells were either (A) exposed to 200 nM H2O2 to induce oxidative injury, or (B) exposed to 6 h of cold preservation in UW at 4° C. in hypoxic conditions in the presence or absence of 100 μM ACT1 peptide, followed by 48 h of reperfusion in normal media.
(§2) HUVECs were exposed to either 18 h of cold storage in UW solution or UW/ACT1 followed by 48 h of reperfusion to model IRI in vitro, as previously described (Atkinson et al., 2013), or H2O2±ACT1 peptide to model oxidative stress. Efficacy was determined by TEER and IL-8 release.

[5] = tested on: Balb/c donor hearts implanted into B6 recipients; experiment: Mouse heterotopic heart allotransplantation model, 48 h post transplantation; format: in vivo
Experimental: Heart allograft transplants were performed between Balb/c donors to B6 recipients. Balb/c donor hearts were removed, perfused with UW solution and then static cold stored in either UW solution alone or UW solution supplemented with 100 μM ACT1 peptide for 6 h at 4° C. Following storage, hearts were implanted into B6 recipients using an abdominal heart transplant procedure.
Heterotopic abdominal heart transplants were performed between Balb/c and C57Bl/6 mice, as previously described (Gao et al., 2014). Donor hearts were cold preserved in UW or UW/ACT1 ([…]) for 6 h at 4° C. Following storage, hearts were then implanted and harvested at 48 h post transplantation to access the impact of ACT1 peptide post-treatment on IRI. Post transplant injury was assessed by analyses of serum Cardiac Troponin I and histological scoring of cardiac graft injury (FIG. 9) and inflammation; neutrophil and macrophage infiltration (FIG. 10), and pro-inflammatory cytokine.

HUVECs [6] = experiment: HUVEC cold preservation, hypoxia and reperfusion model; format: cell-based, human; conditions: 48 h reperfusion
Experimental: as §1, §2

[7] = UW solution with 100 μM ACT1, 6 h hypoxia at 4° C., 4, 8 and 24 h post reperfusion, listed as ACT1 peptide
[8] = UW + 100 μM ACT1, 6 h at 4° C., 48 h post transplantation, n=6, listed as ACT1 peptide
[9] = UW/ACT1 (1000 μM) 6 h at 4° C., 48 h, n=3-6

For RQPKIWFPNRRKPWKKRPRPDDLEI [ACT1], the “IL-8 secretion, endothelial cells (Elisa)” value [1] was “significantly reduced pro-inflammatory cytokine (IL-8) release”, the “IL-8 secretion, endothelial cells (Elisa)” value ([1]; listed as ACT1 peptide) was “significant reduction in IL-8 secretion” and the “TEER / cellular injury, endothelial cells” value [1, 7] was “significantly elevated TEER readings; also recorded: significantly reduced cellular injury”. For the same sequence, the “ACT1 in fluid from the posterior chamber (vitreous humor), Western blot” value [2] was “Lower levels of ACT1 could also be detected”, the “IL-8 secretion, epithelial cells” value ([3]; UW solution supplemented with ACT1 peptide) was “significant reduction in IL-8 secretion” and the “TEER / cellular injury, epithelial cells” value [3, 7] was “significantly elevated TEER readings; also recorded: significantly reduced cellular injury”. For the same sequence, the trachea histology (mouse tracheas) was “preserved trachea histology”, the “apoptosis (TUNEL and caspase)” value (porcine kidney; 100 μM ACT1, cold ischemia 24 h) was “minimizes mitochondrial oxidant production (nitrotyrosine) and apoptosis (TUNEL and caspase)” and the “Cx43 staining (gap junctions)” value (porcine kidney; 100 μM ACT1 in cold Belzer's solution, up to 24 h cold ischemia, listed as ACT1 peptide) was “stabilizes gap junctions (Cx43); also recorded: Punctate Cx43 staining in the membrane (gap junctions) were preserved”. For the same sequence, the “VEGF-induced deterioration of TER” value (ARPE-19 cells) was “prevents VEGF-induced deterioration of TER”, the “Trans-endothelial resistance after H2O2 oxidative injury” value (HUVECs [4]) was “significantly protects endothelial cells from H2O2 to induce oxidative stress” and the “Histological injury score (FIG. 6A)” value [5, 8] was “significantly reduced cardiac injury”. For the same sequence, the “neutrophil infiltration (FIG. 6C)” value [5, 8] was “significantly reduced neutrophil”, the “serum cardiac troponin I levels (FIG. 6B)” value [5, 8] was “reduced serum cardiac troponin I; also recorded: significantly reduced” and the “macrophage (Mac-3) infiltration, immunohistochemistry (FIG. 10B)” value [5, 9] was “significantly reduces post transplant innate immune cell infiltration”. For the same sequence, the “neutrophil (Gr-1) infiltration, immunohistochemistry (FIG. 10A)” value [5, 9] was “significantly reduces post transplant innate immune cell infiltration”, the “serum concentration of Cardiac troponin I (FIG. 9B)” value ([5]; UW/ACT1 (1000 μM) 6 h at 4° C., 48 h post transplantation, n=3-6) was “significantly reduces post transplantation IRI injury” and the “post transplantation IRI injury, histological grading (FIG. 9A)” value ([5]; UW/ACT1 (1000 μM) 6 h at 4° C., 48 h post transplantation, n=3-6, listed as ACT1 peptide) was “significantly reduces ischemic reperfusion induced graft injury and inflammation; also recorded: significantly reduces post transplantation IRI injury”. For the same sequence, the “Trans-endothelial resistance after cold preservation, hypoxia and reperfusion” value (HUVECs [6]; 6 h cold preservation in UW at 4° C., hypoxic, 100 μM ACT1) was “significantly protects endothelial cells from H2O2 to induce oxidative stress, and cold preservation, hypoxic reperfusion injury” and the “IL-8 secretion after cold preservation, hypoxia and reperfusion” value (HUVECs [6]; UW ± 100 μM ACT1) was “rendered less pro-inflammatory as compared to untreated cells”.
